One assay relates to A549 cells. The assay can be described thus: Proliferation Assay (A549 viability, Cell Titer Fluor, 72 hours). The class given is cell-based. The note with it: Homo sapiens, A549, 72 h. In a few lines: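 A549 cells seeded at 1000 cells/well, rested 24 h, then exposed to compound in 0.5% DMSO for 72 h at 37 °C. Viability read by Cell Titer Fluor fluorescence; IC50 from four-parameter logistic fit.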

For assay [1], the target named is purified recombinant human GAC (GLS1) (Homo sapiens (Human), UniProt O94925). The assay can be described thus: GLS1 Enzymatic Activity Assay (dual-coupled enzymatic assay, resorufin/Amplex UltraRed readout).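 Note: glutamate from GAC coupled via glutamate oxidase and peroxidase to resorufin, read as fluorescence (ex 530, em 590 nm) kinetically or at 20 min, four-parameter logistic IC50 fit.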 The class given is biochemical.

Each structure is given as a SMILES string.

Sequence of purified recombinant human GAC (GLS1) (O94925 other isoform, or with tags, fused parts or gaps): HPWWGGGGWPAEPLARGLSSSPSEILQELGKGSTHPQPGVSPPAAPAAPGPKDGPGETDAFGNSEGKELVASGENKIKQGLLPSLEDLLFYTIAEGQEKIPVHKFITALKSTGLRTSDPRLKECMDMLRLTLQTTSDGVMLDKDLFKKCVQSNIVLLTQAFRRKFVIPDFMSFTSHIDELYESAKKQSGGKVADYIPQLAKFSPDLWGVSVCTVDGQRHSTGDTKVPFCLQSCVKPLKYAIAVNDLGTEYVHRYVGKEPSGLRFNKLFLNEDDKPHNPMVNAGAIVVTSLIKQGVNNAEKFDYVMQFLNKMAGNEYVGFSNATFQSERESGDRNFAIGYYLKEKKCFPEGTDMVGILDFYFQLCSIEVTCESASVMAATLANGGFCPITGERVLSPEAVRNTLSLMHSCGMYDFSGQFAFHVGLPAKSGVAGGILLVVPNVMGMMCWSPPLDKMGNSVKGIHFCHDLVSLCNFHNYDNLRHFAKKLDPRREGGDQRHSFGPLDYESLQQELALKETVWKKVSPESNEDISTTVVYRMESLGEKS

For orientation: EC50 means the midpoint of the concentration-response curve. A high value points to lower potency in that assay. A word on the IC50: it is the concentration needed to halve the response being measured. As to `O=C(Cc1ccccn1)Nc1nnc(CC[C@@H](F)Cn2cc(C(=O)NCc3cc(OC(F)(F)F)ccc3F)nn2)s1` [Example 198, (R)-1-(2-fluoro-4-(5-(2-(pyridin-2-yl)acetamido)-1,3,4-thiadiazol-2-yl)butyl)-N-(2-fluoro-5-(trifluoromethoxy)benzyl)-1H-1,2,3-triazole-4-carboxamide], the EC50 in the assay on A549 cells is less than 100 nM. The 50% inhibitory concentration (IC50) in assay [1] was less than 100 nM.
The molecule `CNC(=O)c1cn(CCCCc2ccc(NC(=O)Cc3cccc(C4=CCOCC4)c3)nn2)nn1` [Example 199, 1-(4-(6-(2-(3-(3,6-dihydro-2H-pyran-4-yl)phenyl)acetamido)pyridazin-3-yl)butyl)-N-methyl-1H-1,2,3-triazole-4-carboxamide] returned an EC50 with A549 cells of 100 to 500 nM. Also, in assay [1], the IC50 was less than 100 nM.
In the case of `O=C(Cc1ccccn1)Nc1nnc(CC[C@@H](F)Cn2cc(C(=O)NCc3ccc(C(F)(F)F)cn3)nn2)s1` [Example 201, (R)-1-(2-fluoro-4-(5-(2-(pyridin-2-yl)acetamido)-1,3,4-thiadiazol-2-yl)butyl)-N-((5-(trifluoromethyl)pyridin-2-yl)methyl)-1H-1,2,3-triazole-4-carboxamide], in the assay with A549 cells, the half-maximal effective concentration (EC50) lay within 100 to 500 nM. Besides, the IC50 in assay [1] was less than 100 nM.
Molecule `O=C(Cc1cc(OC(F)(F)F)ccc1F)Nc1nnc(CCC(F)Cn2cc(C(=O)NCc3ccccn3)nn2)s1` (stereo not drawn) [Example 204, 1-(2-fluoro-4-(5-(2-(2-fluoro-5-(trifluoromethoxy)phenyl)acetamido)-1,3,4-thiadiazol-2-yl)butyl)-N-(pyridin-2-ylmethyl)-1H-1,2,3-triazole-4-carboxamide] had an EC50 with A549 cells of less than 100 nM. Moreover, the IC50 in assay [1] is less than 100 nM.
In the case of `COc1ccnc(CNC(=O)c2cn(CC(F)CCc3nnc(NC(=O)Cc4cc(OC(F)(F)F)ccc4F)s3)nn2)c1` (stereo not drawn) [Example 205, 1-(2-fluoro-4-(5-(2-(2-fluoro-5-(trifluoromethoxy)phenyl)acetamido)-1,3,4-thiadiazol-2-yl)butyl)-N-((4-methoxypyridin-2-yl)methyl)-1H-1,2,3-triazole-4-carboxamide], the EC50 in the assay with A549 cells is less than 100 nM. Besides, the half-maximal inhibitory concentration (IC50) in assay [1] was less than 100 nM.
In the case of `COc1cccc(CNC(=O)c2cn(CC(F)CCc3nnc(NC(=O)Cc4cc(OC(F)(F)F)ccc4F)s3)nn2)n1` (stereo not drawn) [Example 206, 1-(2-fluoro-4-(5-(2-(2-fluoro-5-(trifluoromethoxy)phenyl)acetamido)-1,3,4-thiadiazol-2-yl)butyl)-N-((6-methoxypyridin-2-yl)methyl)-1H-1,2,3-triazole-4-carboxamide], in the assay with A549 cells, the EC50 was less than 100 nM. The IC50 in assay [1] is less than 100 nM.
In the case of `CNC(=O)c1cn(CCCCc2ccc(NC(=O)Cc3cc(-c4ccccc4OC(F)(F)F)ccn3)nn2)nn1` [Example 207, N-methyl-1-(4-(6-(2-(4-(2-(trifluoromethoxy)phenyl)pyridin-2-yl)acetamido)pyridazin-3-yl)butyl)-1H-1,2,3-triazole-4-carboxamide], in the assay with A549 cells, the concentration for a half-maximal effect (EC50) is less than 100 nM. For the same molecule, the IC50 in assay [1] was less than 100 nM.
Consider `CNC(=O)c1cn(CCCCc2ccc(NC(=O)Cc3cc(C4CCOCC4)ccn3)nn2)nn1` [Example 208, N-methyl-1-(4-(6-(2-(4-(tetrahydro-2H-pyran-4-yl)pyridin-2-yl)acetamido)pyridazin-3-yl)butyl)-1H-1,2,3-triazole-4-carboxamide], for which, in the assay on A549 cells, the EC50 was 100 to 500 nM. In addition, in assay [1], the IC50 is less than 100 nM.
`CNC(=O)c1cn(CC(F)CCc2nnc(C(=O)NCc3cccc(N4CCCCC4)c3)s2)nn1` (stereo not drawn) [Example 209, 5-(3-fluoro-4-(4-(methylcarbamoyl)-1H-1,2,3-triazol-1-yl)butyl)-N-(3-(piperidin-1-yl)benzyl)-1,3,4-thiadiazole-2-carboxamide] showed an EC50 in the assay with A549 cells of 100 to 500 nM. The IC50 in assay [1] was 100 to 500 nM.
Turning to `O=C(Cc1ccccn1)Nc1ccc(CCC(F)Cn2cc(C(=O)NCc3cc(C(F)(F)F)ccn3)nn2)nn1` (stereo not drawn) [Example 211, 1-(2-fluoro-4-(6-(2-(pyridin-2-yl)acetamido)pyridazin-3-yl)butyl)-N-((4-(trifluoromethyl)pyridin-2-yl)methyl)-1H-1,2,3-triazole-4-carboxamide], in the assay on A549 cells, the EC50 was less than 100 nM. Also, the IC50 in assay [1] was less than 100 nM.
`CNC(=O)c1cn(CCCCc2ccc(NC(=O)Cc3cccc(C4=CCN(C(=O)OC(C)(C)C)CC4)c3)nn2)nn1` [Example 212, tert-butyl 4-(3-(2-((6-(4-(4-(methylcarbamoyl)-1H-1,2,3-triazol-1-yl)butyl)pyridazin-3-yl)amino)-2-oxoethyl)phenyl)-3,6-dihydropyridine-1(2H)-carboxylate] returned an EC50 in the assay with A549 cells of less than 100 nM. In assay [1], the IC50 is less than 100 nM.
For the molecule `CNC(=O)c1cn(CCCCc2ccc(NC(=O)Cc3cccc(C4CCN(C(=O)OC(C)(C)C)CC4)c3)nn2)nn1` [Example 213, tert-butyl 4-(3-(2-((6-(4-(4-(methylcarbamoyl)-1H-1,2,3-triazol-1-yl)butyl)pyridazin-3-yl)amino)-2-oxoethyl)phenyl)piperidine-1-carboxylate], the concentration giving a half-maximal response (EC50) in the assay on A549 cells is less than 100 nM. The half-inhibitory concentration (IC50) in assay [1] was less than 100 nM.
In turn, `CNC(=O)c1cn(CCCCc2ccc(NC(=O)CN3CCCCC3=O)nn2)nn1` [Example 214, N-methyl-1-(4-(6-(2-(2-oxopiperidin-1-yl)acetamido)pyridazin-3-yl)butyl)-1H-1,2,3-triazole-4-carboxamide] gave an EC50 in the assay with A549 cells of more than 5000 nM. Also, the IC50 in assay [1] fell in the range of 100 to 500 nM.
For `CNC(=O)c1cn(CCCCc2ccc(NC(=O)CN3CCC(c4ccccc4)CC3)nn2)nn1` [Example 215, N-methyl-1-(4-(6-(2-(4-phenylpiperidin-1-yl)acetamido)pyridazin-3-yl)butyl)-1H-1,2,3-triazole-4-carboxamide], in that order: 500 to 5000 nM and 100 to 500 nM.
For `CNC(=O)c1nnc(CCCCc2ccc(NC(=O)Cc3cncc(-c4cccc(OC(F)(F)F)c4)c3)nn2)s1` [Example 216, N-methyl-5-(4-(6-(2-(5-(3-(trifluoromethoxy)phenyl)pyridin-3-yl)acetamido)pyridazin-3-yl)butyl)-1,3,4-thiadiazole-2-carboxamide], in the assay with A549 cells, the EC50 was less than 100 nM. The IC50 in assay [1] is less than 100 nM.
As to `CNC(=O)c1cn(CCCCc2ccc(NC(=O)Cc3cccc(C4CCOCC4)c3)nn2)nn1` [Example 217, N-methyl-1-(4-(6-(2-(3-(tetrahydro-2H-pyran-4-yl)phenyl)acetamido)pyridazin-3-yl)butyl)-1H-1,2,3-triazole-4-carboxamide], the EC50 in the assay on A549 cells fell in the range of 100 to 500 nM. Also, the IC50 in assay [1] is less than 100 nM.
Turning to `O=C(Cc1cc(OC(F)(F)F)ccc1F)Nc1nnc(CCC(F)Cn2cc(C(=O)NCc3cccnc3)nn2)s1` (stereo not drawn) [Example 218, 1-(2-fluoro-4-(5-(2-(2-fluoro-5-(trifluoromethoxy)phenyl)acetamido)-1,3,4-thiadiazol-2-yl)butyl)-N-(pyridin-3-ylmethyl)-1H-1,2,3-triazole-4-carboxamide], in the assay on A549 cells, the EC50 is less than 100 nM. In addition, the concentration for half-maximal inhibition (IC50) in assay [1] is less than 100 nM.
In the assay on A549 cells, `COc1ccc(CNC(=O)c2cn(CC(F)CCc3nnc(NC(=O)Cc4cc(OC(F)(F)F)ccc4F)s3)nn2)cn1` (stereo not drawn) [Example 219, 1-(2-fluoro-4-(5-(2-(2-fluoro-5-(trifluoromethoxy)phenyl)acetamido)-1,3,4-thiadiazol-2-yl)butyl)-N-((6-methoxypyridin-3-yl)methyl)-1H-1,2,3-triazole-4-carboxamide] gave an EC50 of less than 100 nM. Further, the IC50 in assay [1] was less than 100 nM.

Source of the values: patent US10344025B2, “GLS1 inhibitors for treating disease” (Board of Regents, The University of Texas System, priority 2014, dated 2019).
